Converted amounts (≈) assume the structure as drawn.
Columns and labels:
[1] = system: Mycobacterium avium; test: Antimycobacterial activity against Mycobacterium avium 330/88 after 21 days by micromethod; format: functional; conditions: 330/88, 504 h
[2] = system: Mycobacterium kansasii; test: Antimycobacterial activity against Mycobacterium kansasii 235/80 after 14 days by micromethod; format: functional; conditions: 235/80, 336 h
[3] = system: Mycobacterium kansasii; test: Antimycobacterial activity against Mycobacterium kansasii 235/80 after 21 days by micromethod; format: functional; conditions: 235/80, 504 h
[4] = Partition coefficient, log P of the compound; format: physicochemical; conditions: octanol/water
[5] = system: Mycobacterium kansasii; test: Antimycobacterial activity against Mycobacterium kansasii 6509/96 after 14 days by micromethod; format: functional; conditions: 6509/96, 336 h
[6] = system: Mycobacterium kansasii; test: Antimycobacterial activity against Mycobacterium kansasii 6509/96 after 21 days by micromethod; format: functional; conditions: 6509/96, 504 h
[7] = system: Mycobacterium avium; test: Antimycobacterial activity against Mycobacterium avium 330/88 after 14 days by micromethod; format: functional; conditions: 330/88, 336 h
[8] = system: Mycobacterium tuberculosis; test: microbe, parasite or virus in culture; conditions: 331/88, 336 h
Description: Antimycobacterial activity against Mycobacterium tuberculosis 331/88 after 14 days by micromethod

[9] = system: Mycobacterium tuberculosis; test: microbe, parasite or virus in culture; conditions: 331/88, 504 h
Description: Antimycobacterial activity against Mycobacterium tuberculosis 331/88 after 21 days by micromethod

[10] = Toxicity against human HCT8 cells after 72 hrs by XTT assay; format: cell-based, HCT-8
[11] = Stability in 100 mM phosphate buffer at pH 3 assessed as compound degradation by HPLC; format: physicochemical
[12] = Stability in 100 mM phosphate buffer at pH 4 assessed as compound degradation by HPLC; format: physicochemical
[13] = Stability in 100 mM phosphate buffer at pH 5 assessed as compound degradation by HPLC; format: physicochemical
[14] = Stability in 100 mM phosphate buffer at pH 6 assessed as compound degradation by HPLC; format: physicochemical
[15] = Stability in 100 mM phosphate buffer at pH 7 assessed as compound degradation by HPLC; format: physicochemical
[16] = Stability in 100 mM phosphate buffer at pH 7.4 assessed as compound degradation by HPLC; format: physicochemical
[17] = Stability in 100 mM phosphate buffer at pH 8 assessed as compound degradation by HPLC; format: physicochemical

## CCCCCCCCCNC(=O)Oc1ccc(Cl)cc1C(=O)Nc1cccc(Cl)c1
[1]
  MIC: 4 µM (≈ 1.81 µg/mL)
[2]
  MIC: 4 µM (≈ 1.81 µg/mL)
[3]
  MIC: 4 µM (≈ 1.81 µg/mL)
[4]
  logP: 6.78
[5]
  MIC: 4 µM (≈ 1.81 µg/mL)
[6]
  MIC: 4 µM (≈ 1.81 µg/mL)
[7]
  MIC: 2 µM (≈ 0.903 µg/mL)
[8]
  MIC: 1 µM (≈ 0.451 µg/mL)
[9]
  MIC: 2 µM (≈ 0.903 µg/mL)

## CCCCCCCCCCNC(=O)Oc1ccc(Cl)cc1C(=O)Nc1cccc(Cl)c1
[1]
  MIC: 8 µM (≈ 3.72 µg/mL)
[2]
  MIC: 8 µM (≈ 3.72 µg/mL)
[3]
  MIC: 8 µM (≈ 3.72 µg/mL)
[4]
  logP: 7.19
[5]
  MIC: 8 µM (≈ 3.72 µg/mL)
[6]
  MIC: 8 µM (≈ 3.72 µg/mL)
[7]
  MIC: 8 µM (≈ 3.72 µg/mL)
[8]
  MIC: 1 µM (≈ 0.465 µg/mL)
[9]
  MIC: 2 µM (≈ 0.931 µg/mL)

## CCCCCCCCCCCNC(=O)Oc1ccc(Cl)cc1C(=O)Nc1ccc(Cl)cc1
[1]
  MIC: 8 µM (≈ 3.84 µg/mL)
[2]
  MIC: 8 µM (≈ 3.84 µg/mL)
[3]
  MIC: 8 µM (≈ 3.84 µg/mL)
[4]
  logP: 7.61
[5]
  MIC: 8 µM (≈ 3.84 µg/mL)
[6]
  MIC: 8 µM (≈ 3.84 µg/mL)
[7]
  MIC: 8 µM (≈ 3.84 µg/mL)
[8]
  MIC: 2 µM (≈ 0.959 µg/mL)
[9]
  MIC: 2 µM (≈ 0.959 µg/mL)

## CCNC(=O)Oc1ccc(Cl)cc1C(=O)Nc1cccc(Cl)c1
[1]
  MIC: 8 µM (≈ 2.83 µg/mL)
[2]
  MIC: 8 µM (≈ 2.83 µg/mL)
[3]
  MIC: 8 µM (≈ 2.83 µg/mL)
[4]
  logP: 3.79
[5]
  MIC: 8 µM (≈ 2.83 µg/mL)
[6]
  MIC: 8 µM (≈ 2.83 µg/mL)
[7]
  MIC: 8 µM (≈ 2.83 µg/mL)
[8]
  MIC: 2 µM (≈ 0.706 µg/mL)
[9]
  MIC: 2 µM (≈ 0.706 µg/mL)

## CCCCNC(=O)Oc1ccc(Cl)cc1C(=O)Nc1cccc(Cl)c1
[1]
  MIC: 16 µM (≈ 6.1 µg/mL)
[2]
  MIC: 16 µM (≈ 6.1 µg/mL)
[3]
  MIC: 16 µM (≈ 6.1 µg/mL)
[4]
  logP: 4.69
[5]
  MIC: 8 µM (≈ 3.05 µg/mL)
[6]
  MIC: 16 µM (≈ 6.1 µg/mL)
[7]
  MIC: 8 µM (≈ 3.05 µg/mL)
[8]
  MIC: 2 µM (≈ 0.763 µg/mL)
[9]
  MIC: 4 µM (≈ 1.53 µg/mL)

## CCCCCCNC(=O)Oc1ccc(Cl)cc1C(=O)Nc1ccc(Cl)c(Cl)c1
[1]
  MIC: 8 µM (≈ 3.55 µg/mL)
[2]
  MIC: 2 µM (≈ 0.888 µg/mL)
[3]
  MIC: 2 µM (≈ 0.888 µg/mL)
[4]
  logP: 6.08
[5]
  MIC: 1 µM (≈ 0.444 µg/mL)
[6]
  MIC: 2 µM (≈ 0.888 µg/mL)
[10]
  EC50 at 72 h: 27.9 µM
[11]
  Stability: Stable
[12]
  Stability: Stable
[13]
  Stability: Stable
[14]
  half-life: 118 h
[15]
  half-life: 64 h
[16]
  half-life: 43 h
[17]
  half-life: 5 h
[7]
  MIC: 4 µM (≈ 1.78 µg/mL)
[8]
  MIC: 0.5 µM (≈ 0.222 µg/mL)
[9]
  MIC: 0.5 µM (≈ 0.222 µg/mL)

## CCCCCNC(=O)Oc1ccc(Cl)cc1C(=O)Nc1cccc(Cl)c1
[1]
  MIC: 8 µM (≈ 3.16 µg/mL)
[2]
  MIC: 8 µM (≈ 3.16 µg/mL)
[3]
  MIC: 8 µM (≈ 3.16 µg/mL)
[4]
  logP: 5.11
[5]
  MIC: 8 µM (≈ 3.16 µg/mL)
[6]
  MIC: 8 µM (≈ 3.16 µg/mL)
[7]
  MIC: 8 µM (≈ 3.16 µg/mL)
[8]
  MIC: 2 µM (≈ 0.791 µg/mL)
[9]
  MIC: 4 µM (≈ 1.58 µg/mL)

## CCNC(=O)Oc1ccc(Cl)cc1C(=O)Nc1ccc(Cl)c(Cl)c1
[1]
  MIC: 32 µM (≈ 12.4 µg/mL)
[2]
  MIC: 2 µM (≈ 0.775 µg/mL)
[3]
  MIC: 4 µM (≈ 1.55 µg/mL)
[4]
  logP: 4.35
[5]
  MIC: 2 µM (≈ 0.775 µg/mL)
[6]
  MIC: 4 µM (≈ 1.55 µg/mL)
[10]
  EC50 at 72 h: 31 µM
[7]
  MIC: 16 µM (≈ 6.2 µg/mL)
[8]
  MIC: 0.5 µM (≈ 0.194 µg/mL)
[9]
  MIC: 1 µM (≈ 0.388 µg/mL)

## CCCCNC(=O)Oc1ccc(Cl)cc1C(=O)Nc1ccc(Cl)c(Cl)c1
[1]
  MIC: 16 µM (≈ 6.65 µg/mL)
[2]
  MIC: 2 µM (≈ 0.831 µg/mL)
[3]
  MIC: 2 µM (≈ 0.831 µg/mL)
[4]
  logP: 5.25
[5]
  MIC: 2 µM (≈ 0.831 µg/mL)
[6]
  MIC: 4 µM (≈ 1.66 µg/mL)
[10]
  EC50 at 72 h: 38 µM
[7]
  MIC: 8 µM (≈ 3.33 µg/mL)
[8]
  MIC: 0.5 µM (≈ 0.208 µg/mL)
[9]
  MIC: 1 µM (≈ 0.416 µg/mL)

## CCCCCNC(=O)Oc1ccc(Cl)cc1C(=O)Nc1ccc(Cl)c(Cl)c1
[1]
  MIC: 16 µM (≈ 6.88 µg/mL)
[2]
  MIC: 2 µM (≈ 0.859 µg/mL)
[3]
  MIC: 2 µM (≈ 0.859 µg/mL)
[4]
  logP: 5.67
[5]
  MIC: 2 µM (≈ 0.859 µg/mL)
[6]
  MIC: 4 µM (≈ 1.72 µg/mL)
[10]
  EC50 at 72 h: 40 µM
[7]
  MIC: 8 µM (≈ 3.44 µg/mL)
[8]
  MIC: 0.5 µM (≈ 0.215 µg/mL)
[9]
  MIC: 0.5 µM (≈ 0.215 µg/mL)

## CCNC(=O)Oc1ccc(Cl)cc1C(=O)Nc1ccc(Cl)cc1
[1]
  MIC: 8 µM (≈ 2.83 µg/mL)
[2]
  MIC: 4 µM (≈ 1.41 µg/mL)
[3]
  MIC: 8 µM (≈ 2.83 µg/mL)
[4]
  logP: 3.79
[5]
  MIC: 4 µM (≈ 1.41 µg/mL)
[6]
  MIC: 8 µM (≈ 2.83 µg/mL)
[7]
  MIC: 8 µM (≈ 2.83 µg/mL)
[8]
  MIC: 1 µM (≈ 0.353 µg/mL)
[9]
  MIC: 2 µM (≈ 0.706 µg/mL)

## CCCCCNC(=O)Oc1ccc(Cl)cc1C(=O)Nc1ccc(Cl)cc1
[1]
  MIC: 8 µM (≈ 3.16 µg/mL)
[2]
  MIC: 2 µM (≈ 0.791 µg/mL)
[3]
  MIC: 4 µM (≈ 1.58 µg/mL)
[4]
  logP: 5.11
[5]
  MIC: 4 µM (≈ 1.58 µg/mL)
[6]
  MIC: 4 µM (≈ 1.58 µg/mL)
[10]
  EC50 at 72 h: 17.4 µM
[7]
  MIC: 8 µM (≈ 3.16 µg/mL)
[8]
  MIC: 0.5 µM (≈ 0.198 µg/mL)
[9]
  MIC: 0.5 µM (≈ 0.198 µg/mL)

## CCCCCCNC(=O)Oc1ccc(Cl)cc1C(=O)Nc1ccc(Cl)cc1
[1]
  MIC: 8 µM (≈ 3.27 µg/mL)
[2]
  MIC: 4 µM (≈ 1.64 µg/mL)
[3]
  MIC: 4 µM (≈ 1.64 µg/mL)
[4]
  logP: 5.53
[5]
  MIC: 2 µM (≈ 0.819 µg/mL)
[6]
  MIC: 4 µM (≈ 1.64 µg/mL)
[7]
  MIC: 4 µM (≈ 1.64 µg/mL)
[8]
  MIC: 1 µM (≈ 0.409 µg/mL)
[9]
  MIC: 2 µM (≈ 0.819 µg/mL)

## CCCCCCCCCCCNC(=O)Oc1ccc(Cl)cc1C(=O)Nc1ccc(Cl)c(Cl)c1
[1]
  MIC: 16 µM (≈ 8.22 µg/mL)
[2]
  MIC: 4 µM (≈ 2.06 µg/mL)
[3]
  MIC: 4 µM (≈ 2.06 µg/mL)
[4]
  logP: 8.17
[5]
  MIC: 4 µM (≈ 2.06 µg/mL)
[6]
  MIC: 4 µM (≈ 2.06 µg/mL)
[7]
  MIC: 16 µM (≈ 8.22 µg/mL)
[8]
  MIC: 2 µM (≈ 1.03 µg/mL)
[9]
  MIC: 2 µM (≈ 1.03 µg/mL)
